Patent US20080221161A1, “HETEROCYCLIC MODULATORS OF TGR5 FOR TREATMENT OF DISEASE” (KALYPSYS, INC., priority 2007, published 2008)
Each block holds one compound with its values, some of them ahead of it.

Biological target: T1, human TGR5 (Homo sapiens, UniProt Q8TDU6)
T1 construct: expressed in transfected cells; host or cells: HEK-293 cells, stably transfected (pcDNA 3.1, Fugene6, geneticin selection)
T1 sequence (Q8TDU6 1-330): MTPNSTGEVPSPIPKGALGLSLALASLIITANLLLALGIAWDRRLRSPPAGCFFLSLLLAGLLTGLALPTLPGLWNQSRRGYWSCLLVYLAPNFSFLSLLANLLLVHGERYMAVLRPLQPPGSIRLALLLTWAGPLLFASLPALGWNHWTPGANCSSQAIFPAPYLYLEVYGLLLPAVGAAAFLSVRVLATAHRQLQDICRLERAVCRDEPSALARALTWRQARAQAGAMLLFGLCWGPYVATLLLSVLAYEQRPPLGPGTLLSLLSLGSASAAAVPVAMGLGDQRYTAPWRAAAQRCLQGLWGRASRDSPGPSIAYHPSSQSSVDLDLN
Experiment: cAMP production assay in HEK293-TGR5 cells
Format: cell-based
Settings: HEK293 cells stably expressing human TGR5; 30 minutes stimulation; LANCE cAMP TR-FRET; read-out: cAMP Production in 293-TGR5 Cells EC50
Description: HEK293 cells stably expressing TGR5 (HEK293-TGR5) were established by stably transfecting HEK-293 cells with an expression vector (pcDNA 3.1, Invetrogen) inserted with human TGR5 cDNA using Fugene6 (Roche, Indianapolis, Ind.) according to conventional methods. Cells were grown in DMEM (invitrogen, Carlsbad, Calif.) supplemented with 10% FBS, 1% penicillin/streptomycin under geneticin selection. The presence of TGR5 transcripts in these cells was confirmed using branched DNA (bDNA, Genospectra, Inc., Fremont Calif.) following the manufacturer's protocol and using specific probes for human TGR5. cAMP production assay was performed in high throughput 1536 well format using LANCE cAMP detection kit (Perkin Elmer Inc., Boston, Mass.) according to the manufacturer's protocol. Briefly, HEK293-TGR5 cells were harvested using non-enzymatic cell dissociation buffer (Invitrogen, Carlsbad, Calif.) and suspended in DMEM supplemented with 0.1% FBS at a density of 800,000 cells/ml. Alexa antibody was added to the cell suspension, and 4 ul of the mixture was dispensed in white opaque tissue culture treated Greiner 1536 well plates (USA Scientific, Inc., Ocala, Fla.). After an overnight incubation at 37C in an atmosphere of 10% CO2 and 95% humidity, 1 ul of 5 mM IBMX (Sigma, St. Louis, Mo.) solution in DMEM was dispensed for a final concentration of 1 mM. Cells were then stimulated with test compounds for 30 minutes, after which time 5 ul of detection reagent was added and incubated for 1-7 hrs at room temperature. TR-FRET signal was detected using the Viewlux (Perkin Elmer Inc., Boston Mass.). EC50 values were determined using Graph Pad Prizm analysis (GraphPad Software, Inc).

EC50: < 10 µM
SMILES: COc1ccc2cc(CNCc3ccc(C(F)(F)F)cc3)c(Oc3cccnc3)nc2c1 [Example 83, 1-(7-methoxy-2-(pyridin-3-yloxy)quinolin-3-yl)-N-(4-(trifluoromethyl)benzyl)methanamine]

EC50: > 10 µM
SMILES: CN(C)c1ccc2cc(CNCc3ccc(C(F)(F)F)cc3)c(-c3ccsc3)nc2c1 [Example 88, N,N-Dimethyl-2-(thiophen-3-yl)-3-((4-(trifluoromethyl)benzylamino)methyl)quinolin-7-amine]

EC50: > 10 µM
SMILES: CN(C)c1ccc2cc(CNCCc3ccc(Br)cc3)c(-c3ccsc3)nc2c1 [Example 89, 3-((4-Bromophenethylamino)methyl)-N,N-dimethyl-2-(thiophen-3-yl)quinolin-7-amine]

EC50: > 10 µM
SMILES: COc1ccc2cc(CNCc3ccc(C(F)(F)F)cc3)c(-c3ccoc3)nc2c1 [Example 90, 1-(2-(Furan-3-yl)-7-methoxyquinolin-3-yl)-N-(4-(trifluoromethyl)benzyl)methanamine]

EC50: < 10 µM
SMILES: COc1ccc2cc(CNCc3ccc(F)c(Cl)c3)c(-c3ccncc3)nc2c1 [Example 92, N-(3-Chloro-4-fluorobenzyl)-1-(7-methoxy-2-(pyridin-4-yl)quinolin-3-yl)methanamine]

EC50: > 10 µM
SMILES: COc1ccc2cc(CNCc3ccc(C(F)(F)F)cc3)c(Sc3ccncc3)nc2c1 [Example 94, 1-(7-Methoxy-2-(pyridin-4-ylthio)quinolin-3-yl)-N-(4-(trifluoromethyl)benzyl)methanamine]

EC50: > 10 µM
SMILES: COc1ccc2cc(CCNCCc3ccc(Br)cc3)c(-c3ccsc3)nc2c1 [Example 102, N-(4-bromophenethyl)-2-(7-methoxy-2-(thiophen-3-yl)quinolin-3-yl)ethanamine]

EC50: > 10 µM
SMILES: COc1ccc2cc(CCNCc3ccc(C(F)(F)F)cc3)c(-c3ccsc3)nc2c1 [Example 106, 2-(7-Methoxy-2-(thiophen-3-yl)quinolin-3-yl)-N-(4-(trifluoromethyl)benzyl)ethanamine]

EC50: > 10 µM
SMILES: Oc1ccc2cc(CCNCc3ccc(C(F)(F)F)cc3)c(-c3ccsc3)nc2c1 [Example 107, 2-(Thiophen-3-yl)-3-(2-(4-(trifluoromethyl)benzylamino)ethyl)quinolin-7-ol]

EC50: > 10 µM
SMILES: Oc1ccc2nc(-c3ccsc3)c(CNCc3ccc(C(F)(F)F)cc3)cc2c1 [Example 111, 2-(Thiophen-3-yl)-3-((4-(trifluoromethyl)benzylamino)methyl)quinolin-6-ol]

EC50: < 10 µM
SMILES: Sc1ccc2cc(CNCCc3ccc(Br)cc3)c(-c3ccsc3)nc2c1 [Example 114, 3-((4-Bromophenethylamino)methyl)-2-(thiophen-3-yl)quinoline-7-thiol]

EC50: > 10 µM
SMILES: COc1ccc2cc(NCc3ccc(C(F)(F)F)cc3)c(-c3ccsc3)nc2c1 [Example 115, 7-Methoxy-2-(thiophen-3-yl)-N-(4-(trifluoromethyl)benzyl)quinolin-3-amine]

EC50: < 10 µM
SMILES: COc1ccc2cc(NCCc3ccc(Br)cc3)c(-c3ccsc3)nc2c1 [Example 116, N-(4-Bromophenethyl)-7-methoxy-2-(thiophen-3-yl)quinolin-3-amine]

EC50: < 10 µM
SMILES: COc1ccc2cc(CNC(=O)COc3cccc4ncccc34)c(-c3ccsc3)nc2c1 [Example 119, N-((7-Methoxy-2-(thiophen-3-yl)quinolin-3-yl)methyl)-2-(quinolin-5-yloxy)acetamide]

EC50: < 10 µM
SMILES: COc1ccc2cc(CNCCOc3cccc4ncccc34)c(-c3ccsc3)nc2c1 [Example 121, N-((7-Methoxy-2-(thiophen-3-yl)quinolin-3-yl)methyl)-2-(quinolin-5-yloxy)ethanamine]

EC50: > 10 µM
SMILES: COc1cc2nc(-c3ccsc3)c(CNCc3ccc(C(F)(F)F)cc3)cc2cc1O [Example 122, 7-Methoxy-2-(thiophen-3-yl)-3-((4-(trifluoromethyl)benzylamino)methyl)quinolin-6-ol]

Continued, compound first:

SMILES: COc1ccc2cc(CNCCCc3ccccc3)c(-c3ccncc3)nc2c1 [Example 81, N-((7-Methoxy-2-(pyridin-4-yl)quinolin-3-yl)methyl)-3-phenylpropan-1-amine]
EC50: < 10 µM

SMILES: COc1ccc2cc(CN[C@H](C)c3ccc(C)cc3)c(-c3ccncc3)nc2c1 [Example 85, (R)—N-((7-Methoxy-2-(pyridin-4-yl)quinolin-3-yl)methyl)-1-p-tolylethanamine]
EC50: < 10 µM

SMILES: COc1ccc2cc(CNCc3ccc(F)cc3F)c(-c3ccncc3)nc2c1 [Example 87, N-(2,4-Difluorobenzyl)-1-(7-methoxy-2-(pyridin-4-yl)quinolin-3-yl)methanamine]
EC50: < 10 µM

SMILES: COc1ccc2cc(CNCCc3c[nH]c4ccc(O)cc34)c(-c3ccncc3)nc2c1 [Example 93, 3-(2-((7-Methoxy-2-(pyridin-4-yl)quinolin-3-yl)methylamino)ethyl)-1H-indol-5-ol]
EC50: > 10 µM

SMILES: COc1ccc2cc(CNCCc3ccc(Cl)cc3)c(Sc3ccncc3)nc2c1 [Example 95, 2-(4-Chlorophenyl)-N-((7-methoxy-2-(pyridin-4-ylthio)quinolin-3-yl)methyl)ethanamine]
EC50: > 10 µM

SMILES: Oc1ccc2cc(CNCCc3ccc(Br)cc3)c(-c3ccncc3)nc2c1 [Example 96, 3-((4-Bromophenethylamino)methyl)-2-(pyridin-4-yl)quinolin-7-ol]
EC50: < 10 µM

SMILES: Oc1ccc2cc(CNCCc3ccc(Br)cc3)c(-c3ccccc3)nc2c1 [Example 100, 3-((4-Bromophenethylamino)methyl)-2-phenylquinolin-7-ol]
EC50: < 10 µM

SMILES: Oc1ccc2cc(CNCCc3ccc(Cl)c(Cl)c3)c(-c3ccsc3)nc2c1 [Example 101, 3-((3,4-Dichlorophenethylamino)methyl)-2-(thiophen-3-yl)quinolin-7-ol]
EC50: < 10 µM

SMILES: Oc1ccc2cc(CNCCc3ccc(Br)cc3)c(-c3ccco3)nc2c1 [Example 103, 3-((4-Bromophenethylamino)methyl)-2-(furan-2-yl)quinolin-7-ol]
EC50: > 10 µM

SMILES: Oc1ccc2cc(CCNCCc3ccc(Br)cc3)c(-c3ccsc3)nc2c1 [Example 104, 3-(2-(4-Bromophenethylamino)ethyl)-2-(thiophen-3-yl)quinolin-7-ol]
EC50: > 10 µM

SMILES: Oc1ccc2nc(-c3ccsc3)c(CNCCc3ccc(Cl)cc3)cc2c1 [Example 105, 3-((4-Chlorophenethylamino)methyl)-2-(thiophen-3-yl)quinolin-6-ol]
EC50: < 10 µM

SMILES: Oc1ccc2cc(CNCCc3ccc(Br)cc3)c(-c3cccs3)nc2c1 [Example 108, 3-((4-Bromophenethylamino)methyl)-2-(thiophen-2-yl)quinolin-7-ol]
EC50: > 10 µM

SMILES: Oc1ccc2cc(CNCCc3ccc(Br)cc3)c(-c3ccoc3)nc2c1 [Example 109, 3-((4-Bromophenethylamino)methyl)-2-(furan-3-yl)quinolin-7-ol]
EC50: > 10 µM

SMILES: COc1ccc2cc(CNCCc3ccc(Cl)cc3)c(-c3ccoc3)nc2c1 [Example 117, 2-(4-Chlorophenyl)-N-((2-(furan-3-yl)-7-methoxyquinolin-3-yl)methyl)ethanamine]
EC50: > 10 µM

SMILES: Oc1ccc2cc(CNCCc3ccc(Cl)cc3)c(-c3ccoc3)nc2c1 [Example 118, 3-((4-Chlorophenethylamino)methyl)-2-(furan-3-yl)quinolin-7-ol]
EC50: > 10 µM

SMILES: Cc1c(CNCCc2ccc(Br)cc2)c(-c2ccsc2)nc2cc(O)ccc12 [Example 120, 3-((4-Bromophenethylamino)methyl)-4-methyl-2-(thiophen-3-yl)quinolin-7-ol]
EC50: > 10 µM

SMILES: COc1cc2cc(CNCCc3ccc(Br)cc3)c(-c3ccsc3)nc2cc1Cl [Example 123, 2-(4-Bromophenyl)-N-((7-chloro-6-methoxy-2-(thiophen-3-yl)quinolin-3-yl)methyl)ethanamine]
EC50: > 10 µM

SMILES: Oc1cc2cc(CNCCc3ccc(Br)cc3)c(-c3ccsc3)nc2cc1Cl [Example 124, 3-((4-Bromophenethylamino)methyl)-7-chloro-2-(thiophen-3-yl)quinolin-6-ol]
EC50: > 10 µM

SMILES: COc1cc2cc(CNCCc3ccc(Br)cc3)c(-c3ccsc3)nc2cc1F [Example 125, 2-(4-Bromophenyl)-N-((7-fluoro-6-methoxy-2-(thiophen-3-yl)quinolin-3-yl)methyl)ethanamine]
EC50: > 10 µM

SMILES: Oc1cc2cc(CNCCc3ccc(Br)cc3)c(-c3ccsc3)nc2cc1F [Example 126, 3-((4-Bromophenethylamino)methyl)-7-fluoro-2-(thiophen-3-yl)quinolin-6-ol]
EC50: < 10 µM
